According to PMC4770093, “The role of kinetic context in apparent biased agonism at GPCRs” (Nature Communications, 2016):
“And” between values parts separate entries of the source, which are not always exact repeats. Equal values may be shown once. Read-outs that look alike come from different tables or passages of the source.

Key:
D2LR [1] = molecular target: T1, D2LR (Homo sapiens, UniProt P14416); assay: Gαi1 G protein activation (BRET); format: cell-based; set-up: expressed in transfected cells
T1 sequence (P14416 whole entry): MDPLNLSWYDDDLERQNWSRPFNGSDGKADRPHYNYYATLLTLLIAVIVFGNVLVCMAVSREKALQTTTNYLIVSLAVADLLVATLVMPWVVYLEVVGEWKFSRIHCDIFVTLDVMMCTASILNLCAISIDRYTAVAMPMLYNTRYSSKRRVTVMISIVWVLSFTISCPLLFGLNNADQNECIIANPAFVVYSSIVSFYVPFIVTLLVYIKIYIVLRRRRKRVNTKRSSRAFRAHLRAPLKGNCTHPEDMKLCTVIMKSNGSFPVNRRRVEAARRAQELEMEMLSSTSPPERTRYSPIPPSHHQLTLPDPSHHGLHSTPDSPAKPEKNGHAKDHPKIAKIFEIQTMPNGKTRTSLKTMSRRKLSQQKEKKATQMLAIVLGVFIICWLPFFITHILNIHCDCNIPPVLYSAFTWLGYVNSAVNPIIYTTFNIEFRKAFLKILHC
Experimental: G protein activation. Flp-In-CHO cells stably expressing the D2LR were seeded at a density of 2,000,000 cells per 10-cm dish and were transfected the following day using polyethylenimine as the transfection reagent. […] Twenty-four hours after transfection, the cells were plated into 96-well CulturPlates (PerkinElmer) and grown overnight. The cells were equilibrated in Hank's balanced salt solution at 37 °C before starting the experiment. The cells were stimulated with the agonists for the indicated timeframes when the BRET readings were captured. Coelenterazine (Promega) was added at a final concentration of 5 μM at least 3 min before measurement. […] Net BRET was determined by subtraction of the vehicle control from the agonist-induced response.

D2LR [2] = molecular target: T1, D2LR; assay: ERK1/2 phosphorylation assay (Alphascreen SureFire); format: cell-based; set-up: expressed in transfected cells; conditions: for Log(τ/KA) pERK1/2 / ΔLog(τ/KA) pERK1/2: 5 minute timepoint; for Log(τ/KA) pERK1/2: Flp-In-CHO-D2LR; for ΔLog(τ/KA) pERK1/2: dopamine as reference agonist; for alpahscreen assay to detect pERK1/2, counts: agonist 10 μM (cariprazine 1 μM), single experiments n=1 to n=4
Experimental: ERK1/2 phosphorylation was measured using the Alphascreen SureFire ERK kit (PerkinElmer, Waltham, USA). Cells were seeded into 96-well plates at a density of 50,000 cells per well. After 5–7 h, cells were washed with PBS and incubated in serum-free DMEM overnight before assaying. Dose–response experiments were performed for each ligand at 37 °C in the presence of 0.1% ascorbic acid. […] The plate was shaken for 5 min at room temperature (RT) before transferring 5 μl of the lysates to a white 384-well Proxiplate (PerkinElmer, Waltham, USA). […] Plates were read using a Fusion-TM plate reader (PerkinElmer, Waltham, USA).

D2LR [3] = molecular target: T1, D2LR; assay: Quantification of biased agonism between pathways (operational model, LogBias); format: cell-based; set-up: expressed in transfected cells
Source text: where Top and Bottom represent the maximal and minimal asymptote of the dose–response curve, [A] is the molar concentration of agonist and EC50 is the molar concentration of agonist required to give a response half way between bottom and top. Dose–response data were fitted to the following form of the operational model of agonism[12] to allow the quantification of biased agonism
where Em is the maximal possible response of the system, Basal is the basal level of response, KA represents the equilibrium dissociation constant of the agonist (A) and τ is an index of the signalling efficacy of the agonist that is defined as RT/KE, where RT is the total number of receptors and KE is the coupling efficiency of each agonist-occupied receptor, and n is the slope of the transducer function that links occupancy to response. The analysis assumes that the transduction machinery used for a given cellular pathway are the same for all agonists, such that the Em and transducer slope (n) are shared between agonists. Data for all compounds for each pathway were fit globally, to determine values of KA and τ. Biased agonism was quantified as previously described. […] The relative bias can then be calculated for each agonist at the two different signalling pathways by subtracting the Δlog(τ/KA) of one pathway from the other to give a ΔΔlog(τ/KA) value, which is a measure of bias. […] All affinity (pKi or pKA), potency (pEC50) and transduction ratio (log(τ/KA)) parameters were estimated as logarithms. When fold changes in bias are described, this was calculated by converting values of ΔΔlog(τ/KA) to the corresponding antilog value. […] Thus, as the application of t-tests and analyses of variance assume Gaussian distribution, estimating the parameters as logarithms allows valid statistical comparison. All results are expressed as the mean±s.e.m. As such, we performed a Brown–Forsythe test (Graphpad prism 6) to assure ourselves of equal variance when such parameters are compared.

D2R = assay: Simulation of receptor occupancy over time from kon and koff; conditions: simulation with a KD concentration of each agonist
Source text: We extended these studies with a Tag-lite receptor binding assay using a D2R construct with an amino-terminal SNAP tag and the fluorescently labelled agonist (±)-4′-amino-2-(N-phenethyl-N-propyl)-amino-5-hydroxytetralin (PPHT). […] The association rate of a ligand is often thought to be diffusion limited. […] Using these kinetic parameters, we performed a simulation to estimate the receptor occupancy of a KD concentration of each agonist over time (Fig. 4e).
Kinetic binding parameters of kon (a), koff (b) and t1/2 (c) were determined in a competition kinetic binding assay using a Tag-lite binding assay and the fluorescently labelled agonist PPHT as the tracer ligand (Supplementary Table 6). […] All values are expressed as mean±s.e.m. from three experiments. (e) The values of kon and koff obtained in the competition kinetic assay were used to simulate receptor occupancy over time using equation (9) and the concentration of ligand equivalent to its KD (see Supplementary Table 6).
where Ymax reflects maximum binding of a concentration of ligand and kob is determined by equation (8).

[4] = 5 minute timepoint, Flp-In-CHO-D2LR
[5] = 5 minute timepoint, dopamine as reference agonist

O=c1[nH]c2cccc(N3CCN(Cc4cccc(-c5ccccc5)c4)CC3)c2o1 [Bifeprunox, bifeprunox]
Log(τ/KA) Gαi1 activation (D2LR [1]; [4]): 8.60 ± 0.11 | ΔLog(τ/KA) Gαi1 activation (D2LR [1]; [5]): 1.43 ± 0.14 | Log(τ/KA) pERK1/2 (D2LR [2]): 7.32 ± 0.10 | ΔLog(τ/KA) pERK1/2 (D2LR [2]): -1.24 ± 0.11 | alpahscreen assay to detect pERK1/2, counts (D2LR [2]; time 10 mins): 15.6263 counts and 16.6076 counts and 20.0466 counts and 28.1436 counts | alpahscreen assay to detect pERK1/2, counts (D2LR [2]; time 15 mins): 10.0482 counts and 8.477 counts and 14.6057 counts and 15.1817 counts | LogBias CI – pERK1/2 (D2LR [3]; [5]): 0.99 ± 0.14 | LogBias Gαi1 – CI (D2LR [3]; [5]): 1.68 ± 0.16 | LogBias Gαi1 – GαoB (D2LR [3]; [5]): 1.17 ± 0.19 | LogBias Gαi1 – cAMP (D2LR [3]; [5]): 1.61 ± 0.16 | LogBias Gαi1 – pERK1/2 (D2LR [3]; [5]): 2.67 ± 0.18 | LogBias GαoB – CI (D2LR [3]; [5]): 0.51 ± 0.15 | LogBias GαoB – cAMP (D2LR [3]; [5]): 0.43 ± 0.14 | LogBias GαoB – pERK1/2 (D2LR [3]; [5]): 1.50 ± 0.17 | LogBias cAMP – CI (D2LR [3]; [5]): 0.08 ± 0.11 | LogBias cAMP – pERK1/2 (D2LR [3]; [5]): 1.06 ± 0.13 | LogBias β-arr2 – CI (D2LR [3]; [5]): -0.33 ± 0.22 | LogBias β-arr2 – Gαi1 (D2LR [3]; [5]): -2.01 ± 0.25 | LogBias β-arr2 – GαoB (D2LR [3]; [5]): -0.84 ± 0.24 | LogBias β-arr2 – cAMP (D2LR [3]; [5]): -0.41 ± 0.22 | LogBias β-arr2 – pERK1/2 (D2LR [3]; [5]): 0.66 ± 0.24 | time to maximal receptor occupancy (D2R): > 90 min

CN1CCN(c2cccc3[nH]c(=O)oc23)CC1 [Pardoprunox, pardoprunox]
Log(τ/KA) Gαi1 activation (D2LR [1]; [4]): 8.10 ± 0.13 | ΔLog(τ/KA) Gαi1 activation (D2LR [1]; [5]): 0.93 ± 0.16 | Log(τ/KA) pERK1/2 (D2LR [2]): 9.06 ± 0.08 | ΔLog(τ/KA) pERK1/2 (D2LR [2]): 0.50 ± 0.10 | alpahscreen assay to detect pERK1/2, counts (D2LR [2]; time 7.5 mins): 13.2699 counts and 16.7995 counts and 15.0808 counts and 9.987 counts | alpahscreen assay to detect pERK1/2, counts (D2LR [2]; time 10 mins): 12.5176 counts and 12.8139 counts and 9.935 counts and 7.3291 counts | alpahscreen assay to detect pERK1/2, counts (D2LR [2]; time 20 mins): 2.97 counts and 3.103 counts and 2.735 counts and 1.953 counts | LogBias CI – pERK1/2 (D2LR [3]; [5]): 0.24 ± 0.12 | LogBias Gαi1 – CI (D2LR [3]; [5]): 0.19 ± 0.18 | LogBias Gαi1 – GαoB (D2LR [3]; [5]): 0.48 ± 0.21 | LogBias Gαi1 – cAMP (D2LR [3]; [5]): 0.35 ± 0.17 | LogBias Gαi1 – pERK1/2 (D2LR [3]; [5]): 0.43 ± 0.19 | LogBias GαoB – CI (D2LR [3]; [5]): -0.29 ± 0.15 | LogBias GαoB – cAMP (D2LR [3]; [5]): -0.13 ± 0.15 | LogBias GαoB – pERK1/2 (D2LR [3]; [5]): -0.05 ± 0.16 | LogBias cAMP – CI (D2LR [3]; [5]): -0.16 ± 0.10 | LogBias cAMP – pERK1/2 (D2LR [3]; [5]): 0.08 ± 0.12 | LogBias β-arr2 – CI (D2LR [3]; [5]): -0.28 ± 0.33 | LogBias β-arr2 – Gαi1 (D2LR [3]; [5]): -0.47 ± 0.36 | LogBias β-arr2 – GαoB (D2LR [3]; [5]): 0.01 ± 0.34 | LogBias β-arr2 – cAMP (D2LR [3]; [5]): -0.12 ± 0.33 | LogBias β-arr2 – pERK1/2 (D2LR [3]; [5]): -0.04 ± 0.33 | time to maximal receptor occupancy (D2R): ≤ 1 min

CCCN(CCC)CCc1cccc2c1CC(=O)N2 [Ropinirole, ropinirole]
Log(τ/KA) Gαi1 activation (D2LR [1]): 6.75 ± 0.09 | ΔLog(τ/KA) Gαi1 activation (D2LR [1]): -0.43 ± 0.13 | Log(τ/KA) pERK1/2 (D2LR [2]): 8.44 ± 0.05 | ΔLog(τ/KA) pERK1/2 (D2LR [2]): -0.12 ± 0.07 | alpahscreen assay to detect pERK1/2, counts (D2LR [2]; time 5 mins): 22.2889 counts and 25.6765 counts and 28.0112 counts | alpahscreen assay to detect pERK1/2, counts (D2LR [2]; time 7.5 mins): 28.0112 counts and 22.6774 counts and 25.7734 counts | alpahscreen assay to detect pERK1/2, counts (D2LR [2]; time 10 mins): 21.5421 counts and 16.2572 counts and 11.748 counts and 11.8417 counts | alpahscreen assay to detect pERK1/2, counts (D2LR [2]; time 20 mins): 4.739 counts and 4.229 counts and 3.491 counts and 4.291 counts | alpahscreen assay to detect pERK1/2, counts (D2LR [2]; time 30 mins): 2.723 counts and 2.242 counts and 2.289 counts and 2.713 counts | LogBias CI – pERK1/2 (D2LR [3]): -0.11 ± 0.10 | LogBias Gαi1 – pERK1/2 (D2LR [3]): -0.31 ± 0.15 | LogBias GαoB – pERK1/2 (D2LR [3]): -0.04 ± 0.14 | LogBias cAMP – pERK1/2 (D2LR [3]): -0.27 ± 0.10 | LogBias β-arr2 – pERK1/2 (D2LR [3]): 0.26 ± 0.21 | LogBias Gαi1 – CI (D2LR [3]; [5]): -0.19 ± 0.15 | LogBias Gαi1 – GαoB (D2LR [3]; [5]): -0.26 ± 0.18 | LogBias Gαi1 – cAMP (D2LR [3]; [5]): -0.03 ± 0.15 | LogBias GαoB – CI (D2LR [3]; [5]): 0.07 ± 0.13 | LogBias GαoB – cAMP (D2LR [3]; [5]): 0.23 ± 0.13 | LogBias cAMP – CI (D2LR [3]; [5]): -0.16 ± 0.09 | LogBias β-arr2 – CI (D2LR [3]; [5]): 0.38 ± 0.21 | LogBias β-arr2 – Gαi1 (D2LR [3]; [5]): 0.57 ± 0.24 | LogBias β-arr2 – GαoB (D2LR [3]; [5]): 0.31 ± 0.23 | LogBias β-arr2 – cAMP (D2LR [3]; [5]): 0.54 ± 0.21 | time to maximal receptor occupancy (D2R): ≤ 1 min

CCCN1CCC[C@@H](c2cccc(O)c2)C1 [S-3PPP, (S)-(-)-3-(3-hydroxyphenyl)-N-propylpiperidine]
Log(τ/KA) Gαi1 activation (D2LR [1]; [4]): 6.60 ± 0.12 | ΔLog(τ/KA) Gαi1 activation (D2LR [1]; [5]): -0.58 ± 0.15 | alpahscreen assay to detect pERK1/2, counts (D2LR [2]; time 7.5 mins): 7.838 counts and 8.667 counts and 10.676 counts and 8.644 counts | alpahscreen assay to detect pERK1/2, counts (D2LR [2]; time 10 mins): 7.633 counts and 9.485 counts and 6.489 counts and 6.6386 counts | alpahscreen assay to detect pERK1/2, counts (D2LR [2]; time 15 mins): 3.509 counts and 3.085 counts and 2.82 counts and 2.443 counts | alpahscreen assay to detect pERK1/2, counts (D2LR [2]; time 20 mins): 2.3 counts and 2.162 counts and 3.001 counts and 1.823 counts | alpahscreen assay to detect pERK1/2, counts (D2LR [2]; time 30 mins): 1.331 counts and 1.287 counts and 2.069 counts and 1.34 counts | bias between the activation of Gαi1 and all other assays apart from the activation of GαoB (D2LR [3]; 5 min, reference dopamine): less than tenfold | LogBias Gαi1 – CI (D2LR [3]; [5]): 0.64 ± 0.19 | LogBias Gαi1 – GαoB (D2LR [3]; [5]): 0.27 ± 0.21 | LogBias Gαi1 – cAMP (D2LR [3]; [5]): 0.83 ± 0.17 | LogBias GαoB – CI (D2LR [3]; [5]): 0.37 ± 0.18 | LogBias GαoB – cAMP (D2LR [3]; [5]): 0.56 ± 0.16 | LogBias cAMP – CI (D2LR [3]; [5]): -0.19 ± 0.13 | time to maximal receptor occupancy (D2R): ≤ 1 min
